# Experimental data published in US10745693B2, “Methods of designing programmable inducible promoters” (WISCONSIN ALUMNI RESEARCH FOUNDATION, priority 2017, dated 2020).
# System: PmeR
# Experiment: Induction assay of PmeR-enriched promoter library driving GFP in E. coli DH10B (flow cytometer)
# Type: cell-based, Pseudomonas syringae
# Details: 300 uM naringenin, over-night growth, E. coli DH10B population repressed by PmeR
# Source text: In this example, the allosteric transcription factor was PmeR (repressor) and the inducer molecule was naringenin.
# The post in vitro enrichment of polynucleotides (with PmeR protein) was cloned into a vector to drive the expression of a green fluorescent protein using the Golden Gate assembly method. Following the transformation and over-night growth in E. coli DH10B, the fluorescent intensity distribution was profiled using a flow cytometer with 488 nm laser and 510 (25) nm filter. The delivery of the transcription repressor was through a second vector containing constitutively expressing PmeR protein. The fluorescent intensity distribution shift was captured with a flow cytometer after over-night growth. A decrease of overall fluorescent intensity was observed. The induction assay was conducted with the addition of 300 uM naringenin to the previous E. coli population with decreased fluorescence.
smiles,measurement,value
O=C1C[C@@H](c2ccc(O)cc2)Oc2cc(O)cc(O)c21 [naringenin],Change of fluorescent intensity distribution on induction,overall increase in fluorescent intensity
